We go through one molecule from patent US20230165846A1, “HETEROCYCLIC GLP-1 AGONISTS” (Gasherbrum Bio, Inc., priority 2020, published 2023).

A word on the EC50: it is the concentration giving half of the maximal effect.

The target of experiment [1] is T1, GLP-1 Receptor (Homo sapiens, UniProt P43220). Put plainly: GLP-1R agonist cAMP stimulation assay, Method 1 (DiscoverX CHO-K1, enzyme fragment complementation). In kind it is cell-based. The note with it: CHO-K1 cell line (DiscoverX) stably expressing GLP-1 Receptor; incubation 30 or 60 min at 37° C.; geometric mean where n>=2; read-out: GLP1R cAMP Stimulation DR: EC50 (nM) Method 1. How it is done: Activation of GLP-1 receptor is known to stimulate cyclic AMP (cAMP) production in cells which indicates primary coupling to the Gas subunit of the G protein heterotrimeric complex.
Method 1: To optimize functional activity directed toward Gas coupling, a CHO—K1 cell line developed by DiscoverX stably expressing the GLP-1 Receptor was used. Cells expressing GLP-1 receptor were plated in a 384-well microtiter plates and incubated overnight at 37° C. with 5% CO2 to allow the cells to attach and grow. Media was then aspirated from the cells and replaced with 15 uL 2:1 Hanks Balanced Salt Solution (HBSS)/10mM Hepes : cAMP XS+ Ab reagent. Five microliters (5 uL) of previously generated compound sample stocks at 4x final concentration in assay buffer were then added to the cells and allowed to incubate at 37° C. for 30 or 60 minutes.
After incubation the assay signal was generated using enzyme fragment complementation (EFC). In EFC, the enzyme B-galactosidase is split into two complementary portions (EA and ED). The fragment ED is fused to cAMP and in the assay format competes with endogenous cAMP for binding to a cAMP specific antibody. Activated β—Gal is formed when exogenous EA fragment binds to free ED-cAMP (not bound to cAMP specific antibody). Activated enzyme levels are detected through conversion of β-gal chemiluminescent substrate which generates a detectable luminescence signal and read on standard microtiter plate.
The methodology for detection of cAMP using EFC requires incubation with 20uL of cAMP XS+ ED/CL lysis cocktail for one hour followed by incubation with 20 uL cAMP XS+ EA reagent for three hours at room temperature. Microplates were read following signal generation with a PerkinElmer Envision instrument utilizing chemiluminescent signal detection. Compound activity was analyzed using CBIS data analysis suite (ChemInnovation, CA). Percentage activity was calculated using the following formula:
(§1) %Activity = 100% x (mean RLU of test sample - mean RLU of vehicle control) / (mean RLU of MAX control - mean RLU of vehicle control))
(§2) This is done to account for the lognormal distribution of multiple estimates of EC50 values. In practice geometric mean is calculated by first generating log values of EC50, averaging replicates and then calculating the antilog of the average.

The target in experiment [2] is T1, GLP-1 Receptor. The experiment is described as follows: GLP-1R agonist cAMP stimulation assay, Method 2 (HDB HEK293/GLP1R/CRE-LUC, Cisbio cAMP dynamic 2 kit). The class given is cell-based. The note with it: HEK293/GLP1R/CRE-LUC cells (HD Biosciences); 30 min at 37° C.; 0.5 mM IBMX, 0.1% BSA; geometric mean where n>=2; read-out: GLP1R cAMP Stimulation DR: EC50 (nM) Method 2 (HDB). As to the method: Method 2: Activation of GLP-1 receptor is known to stimulate cyclic AMP (cAMP) production in cells which indicates primary coupling to the Gas subunit of the G protein heterotrimeric complex.
To optimize functional activity directed toward Gas coupling, a HEK293/CRE-Luc cell line developed by HDB stably expressing the GLP-1 Receptor was used. 200× concentration of compound working solutions were prepared (Agilent Technologies Bravo) with ½log serial dilution in 384-well Echo LDV plate (Labcyte, Cat# LP-0200). […] Seal the plate and incubate at 37° C. with 5% CO2 for 30 min.
After incubation the cAMP assay signal was generated using cAMP dynamic 2 Kit (Cisbio). 5 µL cAMP-d2 working solution was added to each well, followed with 5 µL Anti-cAMP antibody-cryptate working solution added to each well using ThermoFisher Multidrop Combi. Incubate at room temperature for 1 hour protected from light.
as §1, §2

T1 sequence (P43220 24-463): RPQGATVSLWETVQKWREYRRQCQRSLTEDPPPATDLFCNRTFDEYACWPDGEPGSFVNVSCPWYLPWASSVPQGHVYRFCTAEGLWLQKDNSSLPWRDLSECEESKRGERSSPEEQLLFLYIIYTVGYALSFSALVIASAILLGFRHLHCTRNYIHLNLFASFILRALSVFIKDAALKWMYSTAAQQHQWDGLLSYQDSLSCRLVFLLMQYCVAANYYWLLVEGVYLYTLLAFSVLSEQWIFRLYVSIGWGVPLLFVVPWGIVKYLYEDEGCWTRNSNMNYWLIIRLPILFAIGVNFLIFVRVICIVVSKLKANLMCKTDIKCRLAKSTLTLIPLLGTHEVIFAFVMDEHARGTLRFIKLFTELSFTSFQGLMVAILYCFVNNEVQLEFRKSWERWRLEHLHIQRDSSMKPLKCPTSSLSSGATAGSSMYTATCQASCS

For the molecule `O=C(O)c1ccc2nc(Cc3ccc(-c4cccc(OCc5ccc(Cl)cc5F)n4)cc3)n(C[C@@H]3CCO3)c2n1` [Compound 120aw, 2-[[4-[6-[(4-chloro-2-fluoro-phenyl)methoxy]-2-pyridyl]phenyl]methyl]-3-[[(2S)-oxetan-2-yl]methyl]imidazo[4,5-b]pyridine-5-carboxylic acid], the EC50 was under 0.051 nM in experiment [1] and 0.017 nM in experiment [2].
